Data as given in patent US20200199102A1, “COMPOUNDS THAT PARTICIPATE IN COOPERATIVE BINDING AND USES THEREOF” (Revolution Medicines, Inc., priority 2017, published 2020).
Where a SMILES comes first, the peptide text is derived from it. [ ]: non-standard residue; d: D form. MeBmt = C/C=C/C[C@@H](C)[C@@H](O)[C@H](NC)C(=O)O; NMeY = CN[C@@H](Cc1ccc(O)cc1)C(=O)O; NMeF = CN[C@@H](Cc1ccccc1)C(=O)O; NMeI = CC[C@H](C)[C@H](NC)C(=O)O; NMeT = CN[C@H](C(=O)O)[C@@H](C)O; NMeL = CN[C@@H](CC(C)C)C(=O)O; NMeV = CN[C@H](C(=O)O)C(C)C; NMeA = CN[C@@H](C)C(=O)O; dNMeA = CN[C@H](C)C(=O)O; Abu = CC[C@H](N)C(=O)O; Sar = CNCC(=O)O

Target: T1, Cyclophilin A (Homo sapiens, UniProt P62937)
T1 construct: made in house
Assay: AlphaLISA inhibition of binding of biotinylated Cyclosporin A to FLAG tagged Cyclophilin A
Details: for % signal: AlphaLISA signal; for % signal / % inhibition of CsA binding to Cyclophilin A: test concentration not given; for IC50: read-out: IC50 value of CsA binding to Cyclophilin A
Source text: The binding of compounds of the invention to Cyclophilin A can be determined using the following protocol.
This protocol utilizes Perkin Elmers AlphaLISA technology platform to detect cyclosporine analogues by measuring the inhibition of binding of biotinylated Cyclosporin A to FLAG tagged Cyclophilin A.
10×TBST Buffer (Boston BioProducts IBB-181), Biotinylated Cyclosporin A (in-house), FLAG tagged Cyclophilin A (in-house); anti-FLAG Donor beads (PerkinElmer AS103) and Streptavidin Acceptor beads (PerkinElmer AL125); Compounds in DMSO (in-house), Cyclosporin A (LC Labs Cat #C-6000).
Add 20 uL of 6 nM Biotinylated CsA working stock to each well of the 96-well plate. Add 1 uL of test compound (100% DMSO) to each well of the plate using the Janus MTD head and P20 tips (except control wells). Add 1 uL of DMSO to negative control wells and 1 uL of 500 uM Cyclosporin A solution to positive control wells. In the dark, add 20 uL of combined Donor/Acceptor beads to each well. Incubate in the dark for 30 minutes at room temperature. In the dark, add 10 uL of 25 nM Flag tagged CypA working stock to each well. Incubate in the dark for 60 minutes at room temperature. Protect plate from light until reading on Biotek Synergy2 Plate Reader; Alphalisa 96-well protocol (680 excitation/615 emission).

T1 sequence (P62937 whole entry, species assumed): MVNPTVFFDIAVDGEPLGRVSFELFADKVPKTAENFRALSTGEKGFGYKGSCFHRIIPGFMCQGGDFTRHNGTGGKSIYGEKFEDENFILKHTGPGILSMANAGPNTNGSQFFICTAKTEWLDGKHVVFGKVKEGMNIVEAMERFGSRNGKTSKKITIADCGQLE

SMILES | % signal [%] | IC50 [nM] | % inhibition of CsA binding to Cyclophilin A [%]
C/C=C/C[C@@H](C)[C@@H](O)[C@H]1C(=O)N[C@@H](CC)C(=O)N(C)CC(=O)N(C)[C@@H]([C@@H](C)CC)C(=O)N[C@@H](C(C)C)C(=O)N(C)[C@@H](C)C(=O)N[C@@H](C)C(=O)N[C@H](C)C(=O)N(C)[C@@H](CC(C)C)C(=O)N(C)[C@@H](CC(C)C)C(=O)N(C)[C@@H](C(C)C)C(=O)N1C [Compound C1] (cyclo([MeBmt][Abu][Sar][NMeI]V[NMeA]A[dA][NMeL][NMeL][NMeV])) | 0.56 | < 2000 | 99.44
C/C=C/C[C@@H](C)[C@@H](O)[C@H]1C(=O)N[C@@H](CC)C(=O)N(C)CC(=O)N(C)[C@@H](C)C(=O)N[C@@H](C(C)C)C(=O)N(C)[C@@H](C)C(=O)N[C@@H](C)C(=O)N[C@H](C)C(=O)N(C)[C@@H](CC(C)C)C(=O)N(C)[C@@H](CC(C)C)C(=O)N(C)[C@@H](C(C)C)C(=O)N1C [Compound C2] (cyclo([MeBmt][Abu][Sar][NMeA]V[NMeA]A[dA][NMeL][NMeL][NMeV])) | 5.25 | < 2000 | 94.75
C/C=C/C[C@@H](C)[C@@H](O)[C@H]1C(=O)N[C@@H](CC)C(=O)N(C)CC(=O)N(C)[C@H](C)C(=O)N[C@@H](C(C)C)C(=O)N(C)[C@@H](C)C(=O)N[C@@H](C)C(=O)N[C@H](C)C(=O)N(C)[C@@H](CC(C)C)C(=O)N(C)[C@@H](CC(C)C)C(=O)N(C)[C@@H](C(C)C)C(=O)N1C [Compound C3] (cyclo([MeBmt][Abu][Sar][dNMeA]V[NMeA]A[dA][NMeL][NMeL][NMeV])) | 13.43 | < 2000 | 86.57
C/C=C/C[C@@H](C)[C@@H](O)[C@H]1C(=O)N[C@@H](CC)C(=O)N(C)CC(=O)N(C)[C@@H](Cc2ccccc2)C(=O)N[C@@H](C(C)C)C(=O)N(C)[C@@H](C)C(=O)N[C@@H](C)C(=O)N[C@H](C)C(=O)N(C)[C@@H](CC(C)C)C(=O)N(C)[C@@H](CC(C)C)C(=O)N(C)[C@@H](C(C)C)C(=O)N1C [Compound C4] (cyclo([MeBmt][Abu][Sar][NMeF]V[NMeA]A[dA][NMeL][NMeL][NMeV])) | 4.12 | < 2000 | 95.88
C/C=C/C[C@@H](C)[C@@H](O)[C@H]1C(=O)N[C@@H](CC)C(=O)N(C)CC(=O)N(C)CC(=O)N[C@@H](C(C)C)C(=O)N(C)[C@@H](C)C(=O)N[C@@H](C)C(=O)N[C@H](C)C(=O)N(C)[C@@H](CC(C)C)C(=O)N(C)[C@@H](CC(C)C)C(=O)N(C)[C@@H](C(C)C)C(=O)N1C [Compound C5] (cyclo([MeBmt][Abu][Sar][Sar]V[NMeA]A[dA][NMeL][NMeL][NMeV])) | 9.09 | < 2000 | 90.91
C/C=C/C[C@@H](C)[C@@H](O)[C@H]1C(=O)N[C@@H](CC)C(=O)N(C)CC(=O)N(C)[C@@H](CC(C)C)C(=O)N[C@@H](C(C)C)C(=O)N(C)[C@@H](C)C(=O)N[C@@H](C)C(=O)N[C@H](C)C(=O)N(C)[C@@H](CC(C)C)C(=O)N(C)[C@@H](CC(C)C)C(=O)N(C)[C@@H](C(C)C)C(=O)N1C [Compound C6] | 7.29 | < 2000 | 92.71
C/C=C/C[C@@H](C)[C@@H](O)[C@H]1C(=O)N[C@@H](CC)C(=O)N(C)CC(=O)N(C)[C@@H]([C@@H](C)O)C(=O)N[C@@H](C(C)C)C(=O)N(C)[C@@H](C)C(=O)N[C@@H](C)C(=O)N[C@H](C)C(=O)N(C)[C@@H](CC(C)C)C(=O)N(C)[C@@H](CC(C)C)C(=O)N(C)[C@@H](C(C)C)C(=O)N1C [Compound C7] (cyclo([MeBmt][Abu][Sar][NMeT]V[NMeA]A[dA][NMeL][NMeL][NMeV])) | 2.65 | < 2000 | 97.35
C/C=C/C[C@@H](C)[C@@H](O)[C@H]1C(=O)N[C@@H](CC)C(=O)N(C)CC(=O)N(C)[C@@H]([C@@H](C)CC)C(=O)N[C@@H](CC(C)C)C(=O)N(C)[C@@H](C)C(=O)N[C@@H](C)C(=O)N[C@H](C)C(=O)N(C)[C@@H](CC(C)C)C(=O)N(C)[C@@H](CC(C)C)C(=O)N(C)[C@@H](C(C)C)C(=O)N1C [Compound C9] (cyclo([MeBmt][Abu][Sar][NMeI]L[NMeA]A[dA][NMeL][NMeL][NMeV])) | 0.11 | < 2000 | 99.89
C/C=C/C[C@@H](C)[C@@H](O)[C@H]1C(=O)N[C@@H](CC)C(=O)N(C)CC(=O)N(C)[C@@H](C)C(=O)N[C@@H](CC(C)C)C(=O)N(C)[C@@H](C)C(=O)N[C@@H](C)C(=O)N[C@H](C)C(=O)N(C)[C@@H](CC(C)C)C(=O)N(C)[C@@H](CC(C)C)C(=O)N(C)[C@@H](C(C)C)C(=O)N1C [Compound C10] (cyclo([MeBmt][Abu][Sar][NMeA]L[NMeA]A[dA][NMeL][NMeL][NMeV])) | 0.56 | < 2000 | 99.44
C/C=C/C[C@@H](C)[C@@H](O)[C@H]1C(=O)N[C@@H](CC)C(=O)N(C)CC(=O)N(C)[C@@H](Cc2ccccc2)C(=O)N[C@@H](CC(C)C)C(=O)N(C)[C@@H](C)C(=O)N[C@@H](C)C(=O)N[C@H](C)C(=O)N(C)[C@@H](CC(C)C)C(=O)N(C)[C@@H](CC(C)C)C(=O)N(C)[C@@H](C(C)C)C(=O)N1C [Compound C12] (cyclo([MeBmt][Abu][Sar][NMeF]L[NMeA]A[dA][NMeL][NMeL][NMeV])) | 3.22 | < 2000 | 96.78
C/C=C/C[C@@H](C)[C@@H](O)[C@H]1C(=O)N[C@@H](CC)C(=O)N(C)CC(=O)N(C)CC(=O)N[C@@H](CC(C)C)C(=O)N(C)[C@@H](C)C(=O)N[C@@H](C)C(=O)N[C@H](C)C(=O)N(C)[C@@H](CC(C)C)C(=O)N(C)[C@@H](CC(C)C)C(=O)N(C)[C@@H](C(C)C)C(=O)N1C [Compound C13] (cyclo([MeBmt][Abu][Sar][Sar]L[NMeA]A[dA][NMeL][NMeL][NMeV])) | 2.70 | < 2000 | 97.30
C/C=C/C[C@@H](C)[C@@H](O)[C@H]1C(=O)N[C@@H](CC)C(=O)N(C)CC(=O)N(C)[C@@H](CC(C)C)C(=O)N[C@@H](CC(C)C)C(=O)N(C)[C@@H](C)C(=O)N[C@@H](C)C(=O)N[C@H](C)C(=O)N(C)[C@@H](CC(C)C)C(=O)N(C)[C@@H](CC(C)C)C(=O)N(C)[C@@H](C(C)C)C(=O)N1C [Compound C14] (cyclo([MeBmt][Abu][Sar][NMeL]L[NMeA]A[dA][NMeL][NMeL][NMeV])) | 9.36 | < 2000 | 

Second part, the compound after the results:

% signal [%] | IC50 [nM] | % inhibition of CsA binding to Cyclophilin A [%] | SMILES
2.93 | < 2000 | 97.07 | C/C=C/C[C@@H](C)[C@@H](O)[C@H]1C(=O)N[C@@H](CC)C(=O)N(C)CC(=O)N(C)[C@@H]([C@@H](C)O)C(=O)N[C@@H](CC(C)C)C(=O)N(C)[C@@H](C)C(=O)N[C@@H](C)C(=O)N[C@H](C)C(=O)N(C)[C@@H](CC(C)C)C(=O)N(C)[C@@H](CC(C)C)C(=O)N(C)[C@@H](C(C)C)C(=O)N1C [Compound C15] (cyclo([MeBmt][Abu][Sar][NMeT]L[NMeA]A[dA][NMeL][NMeL][NMeV]))
2.56 | < 2000 | 97.44 | C/C=C/C[C@@H](C)[C@@H](O)[C@H]1C(=O)N[C@@H](CC)C(=O)N(C)CC(=O)N(C)[C@@H](Cc2ccc(O)cc2)C(=O)N[C@@H](CC(C)C)C(=O)N(C)[C@@H](C)C(=O)N[C@@H](C)C(=O)N[C@H](C)C(=O)N(C)[C@@H](CC(C)C)C(=O)N(C)[C@@H](CC(C)C)C(=O)N(C)[C@@H](C(C)C)C(=O)N1C [Compound C16] (cyclo([MeBmt][Abu][Sar][NMeY]L[NMeA]A[dA][NMeL][NMeL][NMeV]))
17.17 | < 2000 | 82.83 | C/C=C/C[C@@H](C)[C@@H](O)[C@H]1C(=O)N[C@@H](CC)C(=O)N(C)CC(=O)N(C)[C@@H]([C@@H](C)CC)C(=O)N[C@@H](C)C(=O)N(C)CC(=O)N[C@@H](C)C(=O)N[C@H](C)C(=O)N(C)[C@@H](CC(C)C)C(=O)N(C)[C@@H](CC(C)C)C(=O)N(C)[C@@H](C(C)C)C(=O)N1C [Compound C17] (cyclo([MeBmt][Abu][Sar][NMeI]A[Sar]A[dA][NMeL][NMeL][NMeV]))
2.12 | < 2000 |  | C/C=C/C[C@@H](C)[C@@H](O)[C@H]1C(=O)N[C@@H](CC)C(=O)N(C)CC(=O)N(C)[C@@H](C)C(=O)N[C@@H](C)C(=O)N(C)CC(=O)N[C@@H](C)C(=O)N[C@H](C)C(=O)N(C)[C@@H](CC(C)C)C(=O)N(C)[C@@H](CC(C)C)C(=O)N(C)[C@@H](C(C)C)C(=O)N1C [Compound C18] (cyclo([MeBmt][Abu][Sar][NMeA]A[Sar]A[dA][NMeL][NMeL][NMeV]))
16.79 | < 2000 | 83.21 | C/C=C/C[C@@H](C)[C@@H](O)[C@H]1C(=O)N[C@@H](CC)C(=O)N(C)CC(=O)N(C)[C@H](C)C(=O)N[C@@H](C)C(=O)N(C)CC(=O)N[C@@H](C)C(=O)N[C@H](C)C(=O)N(C)[C@@H](CC(C)C)C(=O)N(C)[C@@H](CC(C)C)C(=O)N(C)[C@@H](C(C)C)C(=O)N1C [Compound C19] (cyclo([MeBmt][Abu][Sar][dNMeA]A[Sar]A[dA][NMeL][NMeL][NMeV]))
